For test [1], the target named is CDK2 (human) (UniProt P24941). Put plainly: Cell-Based Assay. Particulars: hdf.
The next test addresses CDK2 (UniProt P24941). Put plainly: Enzyme Assay.
In test [2] the target is CDK2 (human) (UniProt P24941). As to the kind of experiment: Cell-Based Assay.
For test [3], the target named is CDK2 (human) (UniProt P24941). As to the kind of experiment: Cell-Based Assay. Particulars: rko.

As a reminder, the IC50 is the concentration that inhibits the measured activity by half. The low end stands for greater potency, the high end for weaker potency. Regarding `CNS(=O)(=O)Cc1ccc(NN=C2C(=O)Nc3cc(C)c(O)c(C)c32)cc1`, the concentration for half-maximal inhibition (IC50) is over 5 µM against CDK2 (human) [1]; 51 to 100 nM on CDK2; 600 to 1000 nM against CDK2 (human) [2] (hdf); 1100 to 5000 nM at CDK2 (human) [2] (hdf-3); over 5000 nM against CDK2 (human) [2] (mes/sa); 100 to 500 nM on CDK2 (human) [2] (rko). Besides, the half-maximal inhibitory concentration (IC50) against CDK2 (human) [3] fell in the range of 100 to 500 nM.

For the molecule `CN(C)S(=O)(=O)c1ccc(N/C=C2\C(=O)Nc3ccc(-c4cnco4)cc32)cc1`, the IC50 against CDK2 (human) [1] was over 5 µM; at CDK2, 1 to 10 nM; against CDK2 (human) [2] (hdf-3), over 5000 nM; against CDK2 (human) [2] (mda-mb-468) it was over 5000 nM; against CDK2 (human) [2] (mes/sa) it was over 5000 nM; at CDK2 (human) [2] (rko), 1100 to 5000 nM. This molecule also gave a half-inhibitory concentration (IC50) on CDK2 (human) [3] of 1100 to 5000 nM.

For `NS(=O)(=O)c1ccc(NN=C2C(=O)Nc3ccc(-c4cnco4)cc32)cc1`, the IC50 was over 5 µM on CDK2 (human) [1]; 1 to 10 nM against CDK2; 1100 to 5000 nM against CDK2 (human) [2] (hdf); 600 to 1000 nM against CDK2 (human) [2] (hdf-3); 600 to 1000 nM at CDK2 (human) [2] (mda-mb-468); 100 to 500 nM against CDK2 (human) [2] (mes/sa). Moreover, the 50% inhibitory concentration (IC50) at CDK2 (human) [2] (rko) and against CDK2 (human) [3] was 600 to 1000 nM each time.

Consider `CCC(C)Cc1cccc2c1C(=NNc1ccc(S(N)(=O)=O)cc1)C(=O)N2` (stereo not given), for which the IC50 is over 5 µM against CDK2 (human) [1], 1 to 10 nM on CDK2, 1100 to 5000 nM against CDK2 (human) [2] (hdf-3) and 1100 to 5000 nM on CDK2 (human) [3].

For the molecule `CNS(=O)(=O)Cc1ccc(NN=C2C(=O)Nc3ccc4ncccc4c32)cc1`, the IC50 on CDK2 (human) [1] is over 5 µM; at CDK2 it was 1 to 10 nM; against CDK2 (human) [2] (hdf), over 5000 nM; on CDK2 (human) [2] (hdf-3) it was 1100 to 5000 nM; against CDK2 (human) [2] (rko) it was over 5000 nM; against CDK2 (human) [3], 1100 to 5000 nM.

As for `CS(=O)(=O)Cc1ccc(N/C=C2\C(=O)Nc3ccc4ncsc4c32)cc1`, the IC50 at CDK2 (human) [1] was over 5 µM; on CDK2, 11 to 50 nM; against CDK2 (human) [2] (hdf), over 5000 nM; against CDK2 (human) [2] (hdf-3) it was 1100 to 5000 nM; at CDK2 (human) [2] (mes/sa) it was 1100 to 5000 nM; against CDK2 (human) [2] (rko), over 5000 nM. Also, the 50% inhibitory concentration (IC50) at CDK2 (human) [3] lay within 1100 to 5000 nM.

As to `O=C1Nc2ccc3ncsc3c2/C1=C/Nc1ccc2nn[nH]c2c1`, the IC50 was over 5 µM at CDK2 (human) [1]; 11 to 50 nM against CDK2; over 5000 nM against CDK2 (human) [2] (hdf); over 5000 nM at CDK2 (human) [2] (hdf-3); 1100 to 5000 nM at CDK2 (human) [2] (mda-mb-468); over 5000 nM against CDK2 (human) [3].

The record behind these values is the Kinase Knowledgebase extract (Sharma et al. 2016).
